Columns and labels:
alpha human thrombin [1] = target: T1, alpha human thrombin (Homo sapiens, UniProt P00734); experiment: Determination of the thrombin time (concentration doubling the thrombin time) in standard human plasma; type: biochemical; details: pH 7.6, 37° C., alpha human thrombin 3.0 IU/ml
T1 construct: alpha human thrombin
Protocol: The activity of the substances prepared as in Examples 1, 2 or 3 was ascertained by determination of the thrombin time. This entailed the concentration (in μmol/l) which doubled the thrombin time being ascertained.
50 μl of inhibitor solution of various concentrations, 50 μl of standard human plasma and 100 μl of diethylbarbituric acid/sodium acetate buffer, pH 7.6, were incubated at 37° C. for 45 seconds and 100 μl of alpha human thrombin (3.0 IU/ml) were added. The tests were carried out on a Schnitger & Gross apparatus for determination of the thrombin time.

mice = details: mouse, in vivo, iv
Protocol: The toxicity of H-D-Phe-Pro-Arg-CN × 2HCOOH […] in an animal model. The test substance was administered i.v. to mice. Clinically detectable pathological findings were found at and above a dose of 50 mg/kg. The dose for a therapeutic effect ought to be about 1-4 mg/kg.

alpha human thrombin [2] = target: T1, alpha human thrombin; experiment: Inhibition constant (Ki) against alpha human thrombin; type: biochemical

| Structure (SMILES) | Doubling of the thrombin time at concentration (final conc.) (alpha human thrombin [1]) | Dose at and above which clinically detectable pathological findings were found (mice) | Ki (alpha human thrombin [2]) |
| --- | --- | --- | --- |
| CC(C)(C)OC(=O)N[C@H](Cc1ccccc1)C(=O)N1CCC[C@H]1C(=O)NC(C#N)CCCNC(=N)N (stereo partly drawn) [Example 1, N(alpha)-Boc-D-Phenylalanyl-L-prolyl-L-(1-amino-4-guanidino)valeronitrile] | 3.66 µmol/L |  |  |
| N#CC(CCCNC(=N)N)NC(=O)[C@@H]1CCCN1C(=O)[C@@H](Cc1ccccc1)NC(=O)OCC1c2ccccc2-c2ccccc21 (stereo partly drawn) [Example 2, N(alpha)-Fmoc-D-Phenylalanyl-L-prolyl-L-(1-amino-4-guanidino)valeronitrile] | 3.66 µmol/L |  |  |
| N#CC(CCCNC(=N)N)NC(=O)[C@@H]1CCCN1C(=O)[C@H](N)Cc1ccccc1.O=C(O)C(F)(F)F.O=C(O)C(F)(F)F (stereo partly drawn) [Example 3, H-D-Phenylalanyl-L-prolyl-L-(1-amino-4-guanidino)valeronitrile ditrifluoroacetate] | 1.1 µmol/L |  |  |
| N#C[C@H](CCCNC(=N)N)NC(=O)[C@@H]1CCCN1C(=O)[C@H](N)Cc1ccccc1.O=CO.O=CO [H-D-Phe-Pro-Arg-CN × 2HCOOH] |  | ≥ 50 mg/kg | 0.6 µM |
